# Test results: patent US8476064B2, “Inhibition assay method and device for detection of antibiotics” (Charm Sciences, Inc., priority 2006, dated 2013)
# Tests used:
# [1] = tested on: B.st. spores; assay: Antibiotic detection test in spiked milk, Trizma/succinate culture of Example 7 (Table 5); type: cell-based, Bacillus (Geobacillus) Stearothermophilus; settings: for % Pos (16 hr Result) / 16 hr Result: 16 hours later; for % Pos (Result) / Result: immediately after test completion
# Procedure: A Trizma/Succinate solution was prepared by adding 2.5 grams Trizma Base and 6 grams Succinate to 100 mL of reverse osmosis/deionized water (RO/DI Water) in a 125 mL flask. 40 milligrams of BCP (see example 1 for BCP preparation) was then added to a 50 mL conical tube and 25 mL of the Trizma/Succinate solution was added to the 40 milligrams BCP and mixed.
# The media was prepared by dissolving 5 grams glucose and 1 gram Mueller Hinton Broth in 100 mL RO/DI Water. 1.2 mL of a 0.01 mg/mL solution of trimethoprim in RO/DI water was added to the media. 20 mL of the BCP/Trizma/Succinate preparation was added to the media and the media was sterile filtered through a 0.45 micron filter and cooled to 4 degrees C.
# 0.3 grams Difco Bacto-Agar (Item #0140-01), 0.225 NaCl and 17 mL of RO/DI water was combined and mixed and heated the mixture to 95° C. The mixture was removed from the heat and allowed it to cool to 75° C. and then 6 mL media (with BCP/Tris) was added and mixed for 5 minutes. The mixture was cooled to 57° C. and 2 mL spore (concentration of 1 billion cfu/mL) was added and mixed for 5 minutes. 0.200 mL was dispensed into the bottom of each vial.
# In test operation 200 microliters of various milk samples, spiked with known concentrations of antibiotics, were pipetted into vials and incubated for the prescribed time (in this test 2 hours 30 minutes) and prescribed temperature (64 degrees C.+/−2 degrees C.). Results were recorded immediately after test completion and 16 hours later. Incubation was in various Charm Inctronic I incubators. Concentrations listed are in parts per billion (ppb). 4 samples were run at each concentration except 16 negative samples were run and 2 samples each for 3 ppb pen G and amoxicillin. Abbreviations are pencillin G (PenG); sulfamethazine (SMZ); sulfadimethoxine (SDM); tylosin (TY); gentamicin (G); oxytetracycline (OT); pirlimycin (Pirl); amoxicillin (Amox); ampicillin (Amp); cloxacillin (Clox); ceftiofur sodium (Ceft); cephaprin (Ceph); tilmicosin (Til); sulfadoxine (SDN); neomycin (Neo).
# [2] = tested on: B.st. spores; assay: Single service kidney swab microbial growth inhibition test, culture of Example 1, with or without beta-lactam receptor; type: cell-based, Bacillus (Geobacillus) Stearothermophilus; settings: 12.5 ppb penicillin G; Receptor added dried on swab; also: key: positive (+); negative (−)
compound,measurement,setting,value
"CN(C)[C@@H]1C(O)=C(C(N)=O)C(=O)[C@@]2(O)C(O)=C3C(=O)c4c(O)cccc4[C@@](C)(O)[C@H]3[C@H](O)[C@@H]12 [OT, oxytetracycline]",% Pos (16 hr Result),[1]; milk spiked at 200 ppb,0%
same,% Pos (Result),[1]; milk spiked at 200 ppb,0%
same,% Pos (16 hr Result),[1]; milk spiked at 300 ppb,100%
same,% Pos (Result),[1]; milk spiked at 300 ppb,100%
"CC1(C)S[C@@H]2[C@H](NC(=O)Cc3ccccc3)C(=O)N2[C@H]1C(=O)O [PenG, penicillin G]",test result,[2],−
same,16 hr Result,[1]; milk spiked at 3 ppb,Pos
same,% Pos (16 hr Result),[1]; milk spiked at 3 ppb,100%
same,% Pos (Result),[1]; milk spiked at 3 ppb,100%
same,Result,[1]; milk spiked at 3 ppb,Pos
same,16 hr Result,[1]; milk spiked at 4 ppb,Pos
same,% Pos (16 hr Result),[1]; milk spiked at 4 ppb,100%
same,% Pos (Result),[1]; milk spiked at 4 ppb,100%
same,Result,[1]; milk spiked at 4 ppb,Pos
"COc1cc(NS(=O)(=O)c2ccc(N)cc2)nc(OC)n1 [SDM, sulfadimethoxine]",16 hr Result,[1]; milk spiked at 25 ppb,Pos
same,% Pos (16 hr Result),[1]; milk spiked at 25 ppb,100%
same,% Pos (Result),[1]; milk spiked at 25 ppb,100%
same,Result,[1]; milk spiked at 25 ppb,Pos
same,16 hr Result,[1]; milk spiked at 50 ppb,Pos
same,% Pos (16 hr Result),[1]; milk spiked at 50 ppb,100%
same,% Pos (Result),[1]; milk spiked at 50 ppb,100%
same,Result,[1]; milk spiked at 50 ppb,Pos
"Cc1cc(C)nc(NS(=O)(=O)c2ccc(N)cc2)n1 [SMZ, sulfamethazine]",16 hr Result,[1]; milk spiked at 100 ppb,Pos
same,% Pos (16 hr Result),[1]; milk spiked at 100 ppb,100%
same,% Pos (Result),[1]; milk spiked at 100 ppb,100%
same,Result,[1]; milk spiked at 100 ppb,Pos
same,16 hr Result,[1]; milk spiked at 200 ppb,Pos
same,% Pos (16 hr Result),[1]; milk spiked at 200 ppb,100%
same,% Pos (Result),[1]; milk spiked at 200 ppb,100%
same,Result,[1]; milk spiked at 200 ppb,Pos
"CC[C@H]1OC(=O)C[C@@H](O)[C@H](C)[C@@H](O[C@@H]2O[C@H](C)[C@@H](O[C@H]3C[C@@](C)(O)[C@@H](O)[C@H](C)O3)[C@H](N(C)C)[C@H]2O)[C@@H](CC=O)C[C@@H](C)C(=O)/C=C/C(C)=C/[C@@H]1CO[C@@H]1O[C@H](C)[C@@H](O)[C@@H](OC)[C@H]1OC [TY, tylosin]",16 hr Result,[1]; milk spiked at 40 ppb,Pos
same,% Pos (16 hr Result),[1]; milk spiked at 40 ppb,100%
same,% Pos (Result),[1]; milk spiked at 40 ppb,100%
same,Result,[1]; milk spiked at 40 ppb,Pos
same,16 hr Result,[1]; milk spiked at 50 ppb,Pos
same,% Pos (16 hr Result),[1]; milk spiked at 50 ppb,100%
same,% Pos (Result),[1]; milk spiked at 50 ppb,100%
same,Result,[1]; milk spiked at 50 ppb,Pos
gentamicin,16 hr Result,[1]; milk spiked at 300 ppb,Pos
same,% Pos (16 hr Result),[1]; milk spiked at 300 ppb,100%
same,% Pos (Result),[1]; milk spiked at 300 ppb,100%
same,Result,[1]; milk spiked at 300 ppb,Pos
same,16 hr Result,[1]; milk spiked at 400 ppb,Pos
same,% Pos (16 hr Result),[1]; milk spiked at 400 ppb,100%
same,% Pos (Result),[1]; milk spiked at 400 ppb,100%
same,Result,[1]; milk spiked at 400 ppb,Pos
